Laboratory results reported in US11464250B2, “Natural compound sweetener and preparation method therefor” (HUNAN HUACHENG BIOTECH INC., priority 2017, dated 2022).

Tests used:
[1] = times that of saccharose, cited from earlier work
[2] = electronic tongue tasting, intelligent gustation analysis system TS-5000Z; conditions: 1% (mass concentration) saccharose as standard; FIG. 1-FIG. 3
Text: Method II: an intelligent gustation analysis system TS-5000Z, namely an electronic tongue is adopted to perform tasting, an artificial fat membrane sensor technology, of which an operating principle is similar to that of human tongue gustation cells, is employed, basic gustatory sensory indexes such as bitter taste, astringent taste, sour taste, saline taste, fresh taste, sweet taste and raw material original taste of samples such as foods or drugs can be objectively and digitally evaluated, and meanwhile, a bitter aftertaste, an astringent aftertaste and a fresh aftertaste (abundance) can be further analyzed. Drawing is performed according to test data, and electronic tongue tasting test data graphs of the natural compound sweeteners in the embodiments 1-3 are separately shown in FIG. 1-FIG. 3.

Compound: C[C@H](CC[C@@H](O[C@@H]1O[C@H](CO[C@@H]2O[C@H](CO)[C@@H](O)[C@H](O)[C@H]2O)[C@@H](O)[C@H](O)[C@H]1O[C@@H]1O[C@H](CO)[C@@H](O)[C@H](O)[C@H]1O)C(C)(C)O)[C@H]1CC[C@@]2(C)[C@@H]3CC=C4[C@@H](CC[C@H](O[C@@H]5O[C@H](CO[C@@H]6O[C@H](CO)[C@@H](O)[C@H](O)[C@H]6O)[C@@H](O)[C@H](O)[C@H]5O)C4(C)C)[C@]3(C)[C@H](O)C[C@]12C [Mogroside V]
- maximum sweetness relative to saccharose [1]: 420 times

Compound: C=C1C[C@@]23CC[C@H]4[C@@](C)(CCC[C@@]4(C)C(=O)O[C@@H]4O[C@H](CO)[C@@H](O)[C@H](O)[C@H]4O)[C@@H]2CC[C@]1(O[C@@H]1O[C@H](CO)[C@@H](O)[C@H](O[C@@H]2O[C@H](CO)[C@@H](O)[C@H](O)[C@H]2O)[C@H]1O[C@@H]1O[C@H](CO)[C@@H](O)[C@H](O)[C@H]1O)C3 [rebaudioside A]
- electronic tongue taste profile [2]: partial to a herbal medicine taste, namely a raw-material original taste is very strong

Compound: rebaudioside C [Reb C]
- sweetness relative to saccharose ([1]; from CN104144605A discussion): 300 times
